Here are results for 21 molecules from patent publication US7235626B1, “Structured peptide scaffold for displaying turn libraries on phage” (Genentech, Inc., priority 1999, dated 2007).

Like-named read-outs stand apart in the source and are kept apart here. Positions of bridges follow the written chain, without caps; N, C: chain ends. No end group written: not given here.

The conditions of series [1]: cited from earlier work.
The nature of series [2]: Thiol-disulfide exchange equilibrium (GSH/GSSG redox buffer): intramolecular disulfide formation between two Cys of reduced peptide; Ceff=([pep_ox]/[pep_red])x([GSH]^2/[GSSG]), HPLC after acid quench. Conditions: the molecule shown is the open-chain precursor; 32-membered ring; water, ca. 0.15 M Tris, 1 mM EDTA, pH 8.10, 25 mM total glutathione; 0.375 mM; 20.0 °C; 1.5 h.
A short description of series [3]: Circular dichroism spectra of peptides. It is filed as physicochemical. The settings on record: 10° C.; 20 μM peptide in 20 mM potassium phosphate, pH 7.0. Here is the method: Terminal serine and lysine residues were added to improve the solubility of some variants of the CD4 peptide, which are otherwise uncharged. A similar modification was made to bhpW as a control. Non-turn residues that differ between bhpW and the CD4 loop are underlined. Coelution of reduced and oxidized peptides prevented measurement of Ceff for the T2, N3 variant of the CD4 peptide. Circular dichroism spectra were acquired at 10° C. with an Aviv Instruments, Inc. Model 202 spectrophotometer; peptide concentrations were 20 μM in 20 mM potassium phosphate, pH 7.0.
A general note: Circular dichroism is widely used to follow secondary structure.

The nature of series [4]: Thiol-disulfide exchange equilibrium (GSH/GSSG): intramolecular disulfide formation; ddG=-RT ln(Ceff,X/Ceff,Leu), gly-asn turn peptides 1. The settings on record: the molecule shown is the open-chain precursor; 32-membered ring; water, ca. 0.15 M Tris, 1 mM EDTA, pH 8.10, 25 mM total glutathione; 0.375 mM; 20.0 °C; 1.5 h.

“GEWTYDDATKTFTVTE (turn peptide) [hairpin peptide derived from the B1 domain of protein G]”: the hairpin population in series [1] (273 K, from denaturation study) is 80%. In series [1] (assuming ΔCp=0), the ΔH of folding is -11.6 kcal/mol and the ΔS of folding is −39 cal/mol K. Further, the hairpin population entry in series [1] (in water, NMR estimate) was “about 50%”. Molecule `CC(=O)N[C@@H](CS)C(=O)N[C@H](C(=O)N[C@@H](Cc1ccccc1)C(=O)N[C@@H](CCC(=O)O)C(=O)NCC(=O)N[C@@H](CC(N)=O)C(=O)N[C@@H](CCCCN)C(=O)N[C@@H](CC(C)C)C(=O)N[C@H](C(=O)N[C@@H](CS)C(N)=O)[C@@H](C)O)[C@@H](C)O` [Ac-CTFEGNKLTC-NH2] showed a ring closure, Ceff in series [2] of 88 mM.

As for “SCTNQGSFLTCK-NH2 (disulfide 2-11 (inferred)) [T2, N3 variant of the CD4 peptide]”, the “[θ]215” value in series [3] is recorded as −5,000 deg cm^2 dmol^−1. As for `CC(=O)N[C@@H](CS)C(=O)N[C@H](C(=O)N[C@@H](Cc1c[nH]c2ccccc12)C(=O)N[C@@H](CCC(=O)O)C(=O)NCC(=O)N[C@@H](CC(N)=O)C(=O)N[C@@H](CCCCN)C(=O)N[C@@H](CC(C)C)C(=O)N[C@H](C(=O)N[C@@H](CS)C(N)=O)[C@@H](C)O)[C@@H](C)O` [Ac-CTWEGNKLTC-NH2], in series [4], the ring closure, dG (kcal/mol relative to X=Leu) was -0.53. In series [2], this molecule showed a ring closure, Ceff of 210 mM. In the case of “RGITVNGKTYGR (turn peptide) [designed β-hairpin peptide, type I′ turn flanked by three-residue strands]”, the hairpin population entry in series [1] (in water, NMR estimate) is given as “about 30%”.

In series [2], `CC(C)C[C@H](NC(=O)[C@H](CCCCN)NC(=O)[C@H](CC(N)=O)NC(=O)CNC(=O)[C@H](CCC(=O)O)NC(=O)[C@H](Cc1c[nH]c2ccccc12)NC(=O)[C@@H](NC(=O)[C@H](CS)NC(=O)[C@@H](N)CO)[C@@H](C)O)C(=O)N[C@H](C(=O)N[C@@H](CS)C(=O)N[C@@H](CCCCN)C(N)=O)[C@@H](C)O` [H-SCTWEGNKLTCK-NH2] had a ring closure, Ceff of 273 mM. Same read-out and setting: in the case of `CC(=O)N[C@@H](CS)C(=O)N[C@H](C(=O)N[C@@H](CCCCN)C(=O)N[C@@H](CCC(=O)O)C(=O)NCC(=O)N[C@@H](CC(N)=O)C(=O)N[C@@H](CCCCN)C(=O)N[C@@H](CC(C)C)C(=O)N[C@H](C(=O)N[C@@H](CS)C(N)=O)[C@@H](C)O)[C@@H](C)O` [Ac-CTKEGNKLTC-NH2] it was 52 mM. With `CC(=O)N[C@@H](CS)C(=O)N[C@H](C(=O)N[C@@H](Cc1ccc(O)cc1)C(=O)N[C@@H](CCC(=O)O)C(=O)NCC(=O)N[C@@H](CC(N)=O)C(=O)N[C@@H](CCCCN)C(=O)N[C@@H](CC(C)C)C(=O)N[C@H](C(=O)N[C@@H](CS)C(N)=O)[C@@H](C)O)[C@@H](C)O` [Ac-CTYEGNKLTC-NH2], in series [4], the ring closure, dG (kcal/mol relative to X=Leu) was -0.08. This molecule also yielded a ring closure, Ceff in series [2] of 98 mM. Take IYSNSDGTWT (turn peptide): the hairpin population in series [1] (in water, NMR estimate) is listed as 30%. In the case of `CC(C)C[C@H](NC(=O)[C@H](Cc1ccccc1)NC(=O)[C@H](CO)NC(=O)CNC(=O)[C@H](CCC(N)=O)NC(=O)[C@H](Cc1c[nH]c2ccccc12)NC(=O)CNC(=O)[C@H](CS)NC(=O)[C@@H](N)CO)C(=O)N[C@H](C(=O)N[C@@H](CS)C(=O)N[C@@H](CCCCN)C(N)=O)[C@@H](C)O` [H-SCGWQGSFLTCK-NH2], the ring closure, Ceff in series [2] is 48 mM. Turning to “YITNSDGTWT (turn peptide) [model peptide forming a register-shifted hairpin]”, in series [1] (in water, NMR estimate), the hairpin population was 80%. In turn, `CC(=O)N[C@@H](CS)C(=O)N[C@H](C(=O)N[C@@H](CC(N)=O)C(=O)N[C@@H](CCC(=O)O)C(=O)NCC(=O)N[C@@H](CC(N)=O)C(=O)N[C@@H](CCCCN)C(=O)N[C@@H](CC(C)C)C(=O)N[C@H](C(=O)N[C@@H](CS)C(N)=O)[C@@H](C)O)[C@@H](C)O` [Ac-CTNEGNKLTC-NH2] returned a ring closure, Ceff in series [2] of 52 mM. Same read-out and setting: in the case of `CC(C)C[C@H](NC(=O)[C@H](Cc1ccccc1)NC(=O)[C@H](CO)NC(=O)CNC(=O)[C@H](CCC(N)=O)NC(=O)[C@H](CC(N)=O)NC(=O)CNC(=O)[C@H](CS)NC(=O)[C@@H](N)CO)C(=O)N[C@H](C(=O)N[C@@H](CS)C(=O)N[C@@H](CCCCN)C(N)=O)[C@@H](C)O` [H-SCGNQGSFLTCK-NH2] it was 45 mM. As for “IYSNPDGTWT (turn peptide) [variant of tendamistat-based model peptide]”, the hairpin population in series [1] (in water, NMR estimate) is recorded as 30%. MQIGVKNPDGTITLEV (turn peptide): the hairpin population entry in series [1] (in water, NMR estimate) is on record as “ca. 80%”.

For KKYTVSINGKKITVSI (turn peptide), the “ΔG of hairpin formation” value in series [1] (298 K) is on record as 0.08 kcal/mol. For the same molecule, the hairpin population in series [1] (in water, 303 K) is 50%. The molecule `CC(=O)N[C@@H](CS)C(=O)N[C@H](C(=O)N[C@@H](CC(=O)O)C(=O)N[C@@H](CCC(=O)O)C(=O)NCC(=O)N[C@@H](CC(N)=O)C(=O)N[C@@H](CCCCN)C(=O)N[C@@H](CC(C)C)C(=O)N[C@H](C(=O)N[C@@H](CS)C(N)=O)[C@@H](C)O)[C@@H](C)O` [Ac-CTDEGNKLTC-NH2] returned a ring closure, dG (kcal/mol relative to X=Leu) in series [4] of 0.32. `CC(=O)N[C@@H](CS)C(=O)N[C@H](C(=O)N[C@@H](CC(C)C)C(=O)N[C@@H](CCC(=O)O)C(=O)NCC(=O)N[C@@H](CC(N)=O)C(=O)N[C@@H](CCCCN)C(=O)N[C@@H](CC(C)C)C(=O)N[C@H](C(=O)N[C@@H](CS)C(N)=O)[C@@H](C)O)[C@@H](C)O` [Ac-CTLEGNKLTC-NH2]: the ring closure, dG (kcal/mol relative to X=Leu) in series [4] came out at 0. The molecule further gave a ring closure, Ceff in series [2] of 85 mM. On to `CC(C)C[C@H](NC(=O)[C@H](Cc1ccccc1)NC(=O)[C@H](CO)NC(=O)CNC(=O)[C@H](CCC(N)=O)NC(=O)[C@H](Cc1c[nH]c2ccccc12)NC(=O)[C@@H](NC(=O)[C@H](CS)NC(=O)[C@@H](N)CO)[C@@H](C)O)C(=O)N[C@H](C(=O)N[C@@H](CS)C(=O)N[C@@H](CCCCN)C(N)=O)[C@@H](C)O` [H-SCTWQGSFLTCK-NH2], for which the ring closure, Ceff in series [2] was 120 mM. `CC(=O)N[C@@H](CS)C(=O)N[C@H](C(=O)N[C@H](C(=O)N[C@@H](CCC(=O)O)C(=O)NCC(=O)N[C@@H](CC(N)=O)C(=O)N[C@@H](CCCCN)C(=O)N[C@@H](CC(C)C)C(=O)N[C@H](C(=O)N[C@@H](CS)C(N)=O)[C@@H](C)O)C(C)C)[C@@H](C)O` [Ac-CTVEGNKLTC-NH2] registered a ring closure, dG (kcal/mol relative to X=Leu) in series [4] of 0.09. In addition, the ring closure, Ceff in series [2] is 73 mM. In series [4], `CC(=O)N[C@@H](CS)C(=O)N[C@H](C(=O)N[C@H](C(=O)N[C@@H](CCC(=O)O)C(=O)NCC(=O)N[C@@H](CC(N)=O)C(=O)N[C@@H](CCCCN)C(=O)N[C@@H](CC(C)C)C(=O)N[C@H](C(=O)N[C@@H](CS)C(N)=O)[C@@H](C)O)[C@@H](C)O)[C@@H](C)O` [Ac-CTTEGNKLTC-NH2] returned a ring closure, dG (kcal/mol relative to X=Leu) of 0.3.
